Laboratory results as given in patent US5070210A, “Novel ketenimines as intermediates for insecticides” (ICI Americas Inc., priority 1990, dated 1991).

Tests used:
Type in all cases: in vivo
[1] = test system: Cabbage Looper [Trichoplusia ni (Hubner)]; assay: Cabbage looper insecticidal test; conditions: second-instar larvae, percent in solution; 3-5 days
Outline: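 Compounds in 50-50 acetone-water were applied by dipping squash cotyledons (about 1×1.5 in) for 2-3 s; dried leaves went into petri dishes on moist filter paper with 5 second-instar larvae under high humidity. Mortality was scored after 3-5 days; LC50 from dosage-mortality curves, as percent compound in solution.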

[2] = test system: Tobacco Budworm [Heliothis virescens (Fabricius)] eggs; assay: Tobacco budworm egg test; conditions: 2-day old eggs, percent in solution
Outline: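 Paper towel patches bearing 2-day old eggs were dipped in acetone solutions of compound, then set in petri dishes over larval rearing medium at 78° F. Mortality was scored once all control eggs had hatched and larvae were feeding. LC50, from dosage-mortality curves, is given as percent compound in solution.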

[3] = test system: Housefly [Musca domestica]; assay: Housefly insecticidal test; conditions: μg per 25 female flies; mortality after 48 hours
Outline: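 LC50 (μg compound per 25 female flies) derives from dosage-mortality curves of 48 h kill. Flies, females 1-2 days old, were held 25 per cage over a dish coated with dried acetone deposit, starting at 100 μg per cage and descending.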

[4] = test system: Maize weevil [Sitophilus Zeamais (Motschulsky)]; assay: Maize weevil insecticidal test; conditions: adult weevils, percent in solution; 48 hours
Outline: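 LC50, in percent of compound in solution, was derived from dosage-mortality curves after 48 h at about 25 °C. Ten adult weevils per container fed on four corn seeds briefly immersed in acetone:water (50:50) solutions of up to 0.01% and dried.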

Compound | LC50, CL [1] [%] | LC50, TBW, E (TBW-E) [2] [%] | LC50, HF [3] [µg] | LC50, MW [4] [%]
C=C(C)C(=Nc1ccc(C(F)(F)F)cc1)OCc1cccc(Oc2ccc(F)cc2)c1 [Compound 442] | 0.0007 | 0.035 | < 100 | > 0.01
CC(C)C(=Nc1ccc(F)cc1F)OCc1coc(Cc2ccccc2)c1 [Compound 486] | > 0.1 | > 0.1 | 15 | > 0.01
Cc1cc(N=C(OCc2ccc(F)c(Oc3ccccc3)c2)C(C)C)ccc1F [Compound 400] | 0.0007 | 0.025 | < 100 | > 0.01
CC(C)C(=Nc1ccc(F)c(Cl)c1)OCc1ccnc(Oc2ccc(F)cc2)c1 [Compound 511] | 0.0012 | > 0.1 | 89 | > 0.01
C=C(C)C(=Nc1ccc(C(F)(F)F)cc1)OCc1cccc(Oc2ccc(Cl)cc2)n1 [Compound 560] | 0.0015 | < 0.1 | < 100 | > 0.01
Cc1cc(N=C(OCc2cccc(Oc3ccc(Cl)cc3)c2)C(C)C)ccc1F [Compound 397] | 0.0019 | < 0.1 | < 100 | > 0.01
CC(C)(C)C(=Nc1cccc(C(F)(F)F)c1)OCc1cccc(Oc2ccccc2)c1 [Compound 88] | 0.018 | > 0.1 | > 100 | > 0.01
Cc1ccc(N=C(OCc2ccc(F)c(Oc3ccc(Cl)cc3)c2)C(C)C)cc1C [Compound 406] | > 0.1 | < 0.1 | < 100 | > 0.01
CC(C)C(=Nc1ccc(F)c(Cl)c1)OCc1cccc(Oc2cccc(Cl)c2)c1 [Compound 203] | 0.0025 | 0.06 | 43 | > 0.01
CCc1ccc(N=C(OCc2cccc(Oc3ccccc3)c2)C(C)(C)C)cc1 [Compound 163] | 0.004 | > 0.1 | > 100 | > 0.01
CC(C)C(=Nc1ccc(C(F)(F)F)cc1Cl)OCc1ccc(F)c(Oc2ccccc2)c1 [Compound 428] | 0.0017 | > 0.1 | > 100 | > 0.01
CC(Br)C(=Nc1ccc2c(c1)OCO2)OCc1cccc(Oc2ccccc2)c1 (stereo not shown) [Compound 306] | 0.005 | 0.1 | > 100 | > 0.01
CCOc1ccc(N=C(OCc2ccc(F)c(Oc3ccc(Cl)cc3)c2)C(C)C)cc1 [Compound 372] | > 0.1 | > 0.1 | > 100 | > 0.01
Cc1cccc(N=C(OCc2ccc(F)c(Oc3ccc(Cl)cc3)c2)C(C)C)c1 [Compound 401] | 0.0017 | 0.04 | < 100 | > 0.01
COc1ccc(N=C(OCc2ccc(F)c(Oc3ccccc3)c2)C(C)C)cc1Cl [Compound 409] | 0.0017 | 0.025 | < 100 | > 0.01
CC(C)C(=Nc1ccc(S(C)(=O)=O)cc1)OCc1ccc(F)c(Oc2ccc(F)cc2)c1 [Compound 414] | 0.0024 | > 0.1 | < 100 | > 0.01
CCCc1ccc(N=C(OCc2ccc(F)c(Oc3ccc(F)cc3)c2)C(C)C)cc1 [Compound 440] | 0.002 | < 0.1 | > 100 | > 0.01
CC(C)C(=Nc1ccc(Br)cc1)OCc1coc(Cc2ccccc2)c1 [Compound 478] | 0.0037 | > 0.1 | 15 | > 0.01
Cc1ccc(N=C(OCc2ccc(F)c(Oc3ccc(Cl)cc3)c2)C(C)C)cc1Cl [Compound 404] | > 0.1 | 0.025 | < 100 | > 0.01
CC(C)C(=Nc1cccc(C(F)(F)F)c1)OCc1cc(Oc2ccc(Cl)cc2)ccn1 [Compound 509] | 0.0075 | > 0.1 | 79 | > 0.01

Compound | LC50, CL [1] [%] | LC50, TBW, E (TBW-E) [2] [%] | LC50, HF [3] [µg] | LC50, MW [4] [%]
CC(C)C(=Nc1ccc(OCC(F)(F)F)c(Cl)c1)OCc1cccc(Oc2ccccc2)c1 [Compound 425] | 0.00075 | > 0.1 | > 100 | > 0.01
CC(C)C(=Nc1cccc(Br)c1)OCc1cccc(Oc2ccc(Cl)cc2)n1 [Compound 557] | 0.0004 | > 0.1 | < 100 | > 0.01
CC(C)C(=Nc1ccc(F)c(Br)c1)OCc1ccc(F)c(Oc2ccccc2)c1 [Compound 299] | 0.0005 | 0.017 | 8 | > 0.01
CC(C)C(=Nc1ccc(I)c(Cl)c1)OCc1cccc(Oc2ccc(F)cc2)c1 [Compound 374] | 0.00058 | 0.02 | < 100 | > 0.01
Cc1ccc(N=C(OCc2cccc(Oc3ccc(Cl)cc3)c2)C(C)C)cc1Cl [Compound 403] | > 0.1 | > 0.1 | < 100 | > 0.01
CC(C)C(=Nc1ccc([N+](=O)[O-])c(C(F)(F)F)c1)OCc1cccc(Oc2ccccc2)c1 [Compound 307] | 0.002 | 0.08 | > 100 | > 0.01
CC(C)C(=Nc1ccc(C(F)(F)F)cc1Cl)OCc1cccc(Oc2ccc(F)cc2)c1 [Compound 427] | < 0.1 | > 0.1 | > 100 | > 0.01
Cc1cccc(N=C(OCc2cccc(Oc3ccc(F)cc3)c2)C(C)C)c1 [Compound 405] | > 0.1 | > 0.1 | < 100 | > 0.01
COc1ccc(N=C(OCc2ccc(F)c(Oc3ccc(Cl)cc3)c2)C(C)C)cc1 [Compound 412] | > 0.1 | > 0.1 | < 100 | > 0.01
CCc1ccc(N=C(OCc2cccc(Oc3ccc(Cl)cc3)n2)C(C)C)cc1 [Compound 552] | 0.0016 | > 0.1 | > 100 | > 0.01
COc1ccc(N=C(OCc2ccc(F)c(Oc3ccccc3)c2)C(C)C)cc1F [Compound 435] | 0.002 | 0.04 | < 100 | > 0.01
CC(C)C(=Nc1ccc(Br)c(Br)c1)OCc1ccc(F)c(Oc2ccc(F)cc2)c1 [Compound 383] | 0.00029 | 0.038 | < 100 | > 0.01
CC(C)C(=Nc1ccc(OCC(F)(F)F)c(Cl)c1)OCc1ccc(F)c(Oc2ccccc2)c1 [Compound 424] | 0.00038 | 0.035 | > 100 | > 0.01
CC(C)C(=Nc1ccc(OCC(F)(F)F)cc1)OCc1ccc(F)c(Oc2ccccc2)c1 [Compound 422] | 0.00075 | 0.05 | < 100 | > 0.01
CC(C)C(=Nc1ccc(Cl)cc1)OCc1cccc(Oc2ccccc2)n1 [Compound 553] | < 0.1 | 0.1 | < 100 | > 0.01
COCc1c(F)c(F)c(COC(=Nc2ccc(F)c(Cl)c2)C(C)C)c(F)c1F [Compound 505] | 0.0024 | 0.09 | 14 | > 0.01
CC(C)c1ccc(N=C(OCc2cccc(Oc3ccccc3)c2)C2CCC2)cc1 [Compound 339] | 0.017 | > 0.1 | > 100 | > 0.01
CC(C)C(=Nc1ccc(F)c(Cl)c1F)OCc1ccc(F)c(Oc2ccc(Cl)cc2)c1 [Compound 395] | < 0.1 | 0.018 | 8.6 | 0.004
CC(C)C(=Nc1ccc(F)c(Br)c1)OCc1ccc(F)c(Oc2ccc(Cl)cc2)c1 [Compound 379] | 0.00075 | 0.02 | < 100 | > 0.01
COc1ccc(N=C(OCc2ccc(F)c(Oc3ccc(Cl)cc3)c2)C(C)C)cc1Cl [Compound 410] | > 0.1 | > 0.1 | < 100 | > 0.01
